# According to patent US20110230504A1, “ALLEVIATING DISORDERS WITH COMBINING AGENTS THAT INCREASE EPOXYGENATED FATTY ACIDS AND AGENTS THAT INCREASE cAMP” (The Regents Of The University Of California Office Of …, priority 2008, published 2011):
# “Also recorded” adds a separate entry of the source.
# Key:
# rats [1] = test: Thermal withdrawal latency, intraplantar LPS inflammatory pain model and non-inflamed controls; assay type: in vivo, rat; settings: for effect on AEPU mediated antihyperalgesia: LPS treated rats, AEPU 50 mg/kg topical; for thermal withdrawal latency in the absence of inflammation: control rats, i.pl. saline; for LPS elicited thermal hyperalgesia (thermal withdrawal latency): rats, i.pl. LPS 10 μg
# [2] = tested on: plasma oxylipins (EETs, DHETs, PGE2); test: Plasma oxylipin analysis in LPS treated rats; assay type: in vivo, rat
# Excerpt: Plasma was collected by cardiac puncture under deep anesthesia. Rats were anesthetized by isoflurane overdose and decapitated. Whole brains were immediately excised and flash frozen. […] Dorsal roots were excluded.
# [3] = tested on: circulating testosterone and progesterone; test: Circulating steroid hormone levels by RIA; assay type: in vivo, rat; settings: rats
# [4] = Brain, blood and plasma inhibitor levels, LC-ESI-MS/MS; settings: 10 mg/kg TPAU, 40 mg/kg AUDA; unpublished results
# rats [5] = test: Streptozocin induced diabetic neuropathy, Von Frey mechanical allodynia; assay type: in vivo, rat; settings: Von Frey's test
# Experimental: The study was approved by UC Davis Animal Care and Use Committee. Male Sprague-Dawley rats weighing 250-350 g were obtained from Charles River Inc. Two models of inflammatory pain and one model of diabetic neuropathic pain were used to test the effects of sEHI. The main inflammatory pain model used involved intraplantar LPS (10 μg/animal) administration as described previously (Inceoglu B et al., Life Sci 79:2311-2319 (2006)). Briefly, following baseline thermal withdrawal latency and mechanical withdrawal threshold determination LPS (in saline) was administered into one hind paw and nociceptive thresholds were monitored over time. The other inflammatory pain model involved intraplantar carrageenan (1% in saline, 50 μl) administration and was only used when sEHI was administered into the spinal cord. Intrathecal catheters were implanted according to Yaksh and Rudy (Yaksh T L and Rudy T A, Physiol Behav 17(6):1031-1036 (1976)). Following baseline nociceptive response measurements carrageenan was administered into one hind paw and responses were monitored over time and after intraspinal sEHI administration. […] In experiments in which EETs, sEHI and cAMP analogue was administered intraspinally animals were maintained under deep anesthesia and therefore nociceptive thresholds were not determined.
# rats [6] = test: Mechanical hind paw withdrawal threshold (Randall-Selitto), non-inflammatory model; assay type: in vivo, rat
# Experimental: Behavioral nociceptive testing was conducted by assessing thermal hindpaw withdrawal latencies (TWL) using a commercial Hargreaves apparatus (IITC, Woodland Hills, Calif.), or by determining mechanical hind paw withdrawal thresholds (MWT) using a digital paw pressure Randall-Selitto instrument (IITC, Woodland Hills, Calif.). On the day of the experiment, rats were transferred to a quiet room, acclimated for 1 hour and their baseline responses were measured. In pilot experiments, the intensity of the thermal stimulus was set to produce a baseline TWL of 7-8 sec. Baseline mechanical hind paw withdrawal thresholds varied between 60-70 grams of force. Immediately following baseline determination all compounds were administered subcutaneously in the following vehicles; Inhibitors of sEH were formulated in trans free oleate and administered in a total volume of 300 µL Rolipram, picrotoxin, flucanozole, miconazole and finasteride were all dissolved in a sterile saline solution containing 25% DMSO and administered in a volume of 50 μl. Caffeine was dissolved in saline and administered in a total volume of 300 μl. All agents were administered subcutaneously into the back. In groups treated with the sEHi, cytochrome P450 inhibitors, finasteride or picrotoxin animals were pretreated one hour before other compounds. In groups treated with the PDEi, immediately following PDEi administration animals were placed in acrylic chambers on a glass platform maintained at a temperature of 30±1° C. for TWL measurement. Three to five TWL measurements were taken at 1-2 min interstimulus intervals following treatments and these were averaged for each animal at each time point. […] The instrument was set to the maximum holding (MH) mode and the readout that elicited a hind paw withdrawal was designated as the threshold. […] Open field activity was quantified using a Plexiglas chamber (40×40×30 cm, length×width×height) imprinted with a 10×10 cm grid. […] The number of crossings were recorded when both hind paws crossed into a neighboring cell. […]
# rats [7] = test: Thermal hindpaw withdrawal latency (Hargreaves), non-inflammatory model; assay type: in vivo, rat
# Experimental: Behavioral nociceptive testing was conducted by assessing thermal hindpaw withdrawal latencies (TWL) using a commercial Hargreaves apparatus (IITC, Woodland Hills, Calif.), or by determining mechanical hind paw withdrawal thresholds (MWT) using a digital paw pressure Randall-Selitto instrument (IITC, Woodland Hills, Calif.). On the day of the experiment, rats were transferred to a quiet room, acclimated for 1 hour and their baseline responses were measured. In pilot experiments, the intensity of the thermal stimulus was set to produce a baseline TWL of 7-8 sec. Baseline mechanical hind paw withdrawal thresholds varied between 60-70 grams of force. Immediately following baseline determination all compounds were administered subcutaneously in the following vehicles; Inhibitors of sEH were formulated in trans free oleate and administered in a total volume of 300 µL Rolipram, picrotoxin, flucanozole, miconazole and finasteride were all dissolved in a sterile saline solution containing 25% DMSO and administered in a volume of 50 μl. Caffeine was dissolved in saline and administered in a total volume of 300 μl. All agents were administered subcutaneously into the back. In groups treated with the sEHi, cytochrome P450 inhibitors, finasteride or picrotoxin animals were pretreated one hour before other compounds. In groups treated with the PDEi, immediately following PDEi administration animals were placed in acrylic chambers on a glass platform maintained at a temperature of 30±1° C. for TWL measurement. Three to five TWL measurements were taken at 1-2 min interstimulus intervals following treatments and these were averaged for each animal at each time point. For MWT measurement, 45 minutes following treatment, the probe of the Randall-Selitto paw pressure meter was applied to the dorsal surface of the hind paw. The instrument was set to the maximum holding (MH) mode and the readout that elicited a hind paw withdrawal was designated as the threshold. Three MWT measurements were taken at 1-2 min interstimulus intervals and these were averaged for each animal. Data are presented as percent change from each animal's baseline response. Open field activity was quantified using a Plexiglas chamber (40×40×30 cm, length×width×height) imprinted with a 10×10 cm grid. Animals were placed in the middle of the chamber and observed for two minutes. The number of crossings were recorded when both hind paws crossed into a neighboring cell.
# A non-inflammatory model was used to test the hypothesis that elevated intracellular cAMP and EETs will act synergistically in producing antinociception. Intracellular cAMP levels were increased by administering increasing doses of two CNS permeable PDEi; rolipram, a PDE-4 selective inhibitor and caffeine, a non selective PDEi. […]
# C57BL/6 mice = test: Pentobarbital induced loss of righting reflex; assay type: in vivo, mouse; settings: pentobarbital 40 mg/kg i.p., TPAU 3 mg/kg, rolipram 1 mg/kg s.c.
# Excerpt: Loss of righting was quantified as previously described, with a slightly lower dose of pentobarbital (Pinna, et al. (2004) Proc Natl Acad Sci USA, 101(16), 6222-6225).
# In rats, sEHi-PDEi combination led to significant increases in nociceptive thresholds. We asked if co-administration of sEHi-PDEi combination would also enhance GABA-related activity in mice. Loss of righting reflex in pentobarbital administered mice following sEHi and PDEi administration was quantified.
# StARD1 mRNA [8] = test: StARD1 expression after rolipram and TPAU, qRT-PCR; assay type: in vivo, rat; settings: rats
# Excerpt: Briefly, RNA from whole spinal cord, brain and adrenal gland samples were extracted using a purelink Micro to Midi total RNA purification kit (Invitrogen, CA). The RNA samples were quantified by spectrophotometry and converted to cDNA using a high capacity cDNA reverse transcription kit from Applied Biosystems (CA, USA). Taq-man probe for StARD1 (Rn00580695_ml) was used according to manufacturer's instructions to quantify relative gene expression (Applied Biosystems CA, USA). Experiments were performed in triplicate with glyceraldehyde 3-phosphate dehydrogenase gene serving as the endogenous control. Mean fold expression values from corresponding vehicle treated animal tissues were used as calibrators.
# These findings encouraged us to investigate the expression of StARD1 message as a marker of steroidogenic activity. […] Adrenal StARD1 from the same animals was also monitored as a marker of peripheral steroidogenesis.
# allopregnanolone = test: Radioimmunoassay of allopregnanolone in spinal cord and brain; assay type: in vivo, rat; settings: rats, increasing rolipram doses, TPAU 10 mg/kg s.c.
# Experimental: Radioimmunoassays were conducted as previously described (Janis G, C. et al., Alcoholism: Clinical and Experimental Research 22:2055-2061 (1998)). Briefly, spinal cord and brain samples were weighed and suspended in 2.5 ml of 0.3N NaOH, homogenized with a sonic dismembrator, and extracted three times with 3 ml aliquots of 10% ethyl acetate in heptane (vol/vol). Extraction recovery was monitored by the addition of 2000 cpm of [^3H]allopregnanolone. The extracts were purified using solid phase silica columns (Burdick and Jackson, Muskegon, Mich.) and subsequently dried. Samples were reconstituted and assayed in duplicate by the addition of [^3H]allopregnanolone and anti-allopregnanolone antibody (1:2000; Custom synthesis, Reproductive Endocrine Unit, Massachusetts General Hospital). Total binding was determined in the absence of unlabeled allopregnanolone and nonspecific binding was determined in the absence of antibody. The antibody binding reaction is allowed to equilibrate for 2 hours and cold dextran-coated charcoal was used to separate bound from unbound steroid. Bound radioactivity was determined by liquid scintillation spectroscopy. Steroid levels in the samples were extrapolated from a concurrently run standard curve and corrected for their respective extraction efficiencies. The sensitivity of the assay was 0.63 ng/ml. The intraassay coefficient of variation was <5%.
# rats [9] = test: Open field / motor activity; assay type: in vivo, rat; settings: rolipram 0.1 and TPAU 10 mg/kg
# [10] = tested on: C57BL/6 mice; sEH null mice; test: Picrotoxin induced seizures; assay type: in vivo, mouse
# StARD1 mRNA [11] = test: StARD1 mRNA 30 min after intraspinal 8-Br cAMP, EETs, AEPU in non-inflamed rats; assay type: in vivo, rat; settings: 8-Br cAMP 100 μg, EETs 5 μg, AEPU 1 μg
# Experimental: To investigate the cooperation between cAMP and EETs in the spinal cord, a membrane permeable cAMP analogue, 8-Br cAMP (100 μg), was administered into the spinal cord by lumbar puncture (between L4-L5) and rapid (30 min.) expression of StARD1 mRNA in the spinal cord and the brain was quantified by qRT-PCR. In these experiments animals were maintained under deep anesthesia.
# [12] = one hour, increasing rolipram doses, TPAU 10 mg/kg
molecule,measurement,setting,value
CC(=O)S[C@@H]1CC2=CC(=O)CC[C@]2(C)[C@H]2CC[C@@]3(C)[C@@H](CC[C@@]34CCC(=O)O4)[C@H]12 [spironolactone],effect on AEPU mediated antihyperalgesia,rats [1],did not block
CCC1(c2ccc(N)cc2)CCC(=O)NC1=O (centres unmarked) [aminoglutethimide],effect on AEPU mediated antihyperalgesia,rats [1],blocked
same,thermal withdrawal latency in the absence of inflammation,rats [1],failed to alter
same,LPS elicited thermal hyperalgesia (thermal withdrawal latency),rats [1],failed to alter
same,plasma EET/DHET ratio,[2]; LPS and AEPU-treated rats,did not change
same,antagonism of sEHI reduction of PGE2,[2]; LPS+AEPU+AGL treated rats,did not antagonize
same,circulating / plasma progesterone level,[3],significantly reduced
CC#C[C@]1(O)CC[C@H]2[C@@H]3CCC4=CC(=O)CCC4=C3[C@@H](c3ccc(N(C)C)cc3)C[C@@]21C [mifepristone],effect on AEPU mediated antihyperalgesia,rats [1],did not block
CC/C(=C(\c1ccccc1)c1ccc(OCCN(C)C)cc1)c1ccccc1 [tamoxifen],effect on AEPU mediated antihyperalgesia,rats [1],did not block
"O=C(O)CCCCCCCCCCCNC(=O)NC12CC3CC(CC(C3)C1)C2 [AUDA, 12-(3-Adamantan-1-yl-ureido)dodecanoic acid]",plasma inhibitor levels relative to rat sEH IC50,[4],200 fold
same,mechanical allodynia elicited by streptozocin induced diabetic neuropathy,rats [5],reduced
same,effect on caffeine's increase of mechanical withdrawal threshold,"rats [6]; rats, AUDA 40 mg/kg",enhanced
same,"thermal withdrawal latency, sEHi alone","rats [7]; rats, s.c., over 4 hours, vs baseline",no significant differences
COc1ccc(C2CNC(=O)C2)cc1OC1CCCC1 (centres unmarked) [Rolipram],ED50,"rats [6]; Rattus norvegicus, sc, rats, rolipram dose, AUDA 40 mg/kg",0.3 mg/kg
same,duration of pentobarbital induced loss of righting response,C57BL/6 mice,no effect; also recorded: did not change
same,decrease in adrenal gland StARD1 expression,StARD1 mRNA [8],30%
same,brain StARD1 expression,StARD1 mRNA [8]; [12],no change
same,spinal cord StARD1 expression,StARD1 mRNA [8]; [12],biphasic increase
same,brain allopregnanolone levels,allopregnanolone,significantly increased allopregnanolone levels at one dose point only
same,spinal cord allopregnanolone levels,allopregnanolone,did not change
same,ED50,"rats [7]; Rattus norvegicus, sc",0.53 mg/kg
same,"efficacy, increase over baseline in thermal withdrawal latency","rats [7]; rats, s.c.",202%
same,open field activity / motor function,rats [9],depression of activity
same,time to onset of picrotoxin induced seizures,"[10]; C57BL/6 mice, picrotoxin 10 mg/kg s.c., TPAU 3 mg/kg, rolipram 1 mg/kg s.c.",no effect
same,onset of picrotoxin induced seizures in sEH null mice,"[10]; sEH null mice, increasing doses",delayed in a dose dependent manner
Cn1c(=O)c2c(ncn2C)n(C)c1=O [caffeine],open field activity / motor function,rats [9],did not cause depression of motor activity
CC1(C)NC(=O)N(c2ccc([N+](=O)[O-])c(C(F)(F)F)c2)C1=O [nilutamide],effect on AEPU mediated antihyperalgesia,rats [1],did not block
Nc1ncnc2c1nc(Br)n2[C@@H]1O[C@@H]2COP(=O)(O)O[C@H]2[C@H]1O [8-Br cAMP],brain StARD1 expression,StARD1 mRNA [11],Neither brain nor spinal StARD1 expression changed
same,spinal StARD1 expression,StARD1 mRNA [11],without effect
Clc1ccc(COC(Cn2ccnc2)c2ccc(Cl)cc2Cl)c(Cl)c1 (centres unmarked) [miconazole],effect on the dose-effect curve of rolipram (antinociception),"rats [7]; rats, s.c.",failed to change
picrotoxin,effect on rolipram+AUDA increase in mechanical withdrawal threshold,rats [6]; picrotoxin 0.25 mg/kg,antagonized
same,"effect on rolipram+AUDA antinociception, thermal withdrawal",rats [7]; picrotoxin 0.25 mg/kg,antagonized
same,"baseline nociceptive responses, given alone",rats [7]; picrotoxin 0.25 mg/kg s.c.,did not change baseline responses
CC(C)(C)NC(=O)[C@H]1CC[C@H]2[C@@H]3CC[C@H]4NC(=O)C=C[C@]4(C)[C@H]3CC[C@]12C [finasteride],effect on AEPU mediated antihyperalgesia,rats [1],blocked
same,thermal withdrawal latency in the absence of inflammation,rats [1],failed to alter
same,LPS elicited thermal hyperalgesia (thermal withdrawal latency),rats [1],failed to alter
same,effect on the dose-effect curve of rolipram (antinociception),"rats [7]; rats, s.c.",antagonized
OC(Cn1cncn1)(Cn1cncn1)c1ccc(F)cc1F [Flucanozole],effect on the dose-effect curve of rolipram (antinociception),"rats [7]; rats, s.c.",antagonized
